Calls of active or inactive are those of the source. The calls are words filed in the database; no cut-off is given here.
Columns and labels:
[1] = target: T1, Transient receptor potential cation channel subfamily M member 8 (Homo sapiens, UniProt Q7Z2W7); test: Antagonist activity at recombinant human TRPM8 transfected in HEK293 cells assessed as assessed as inhibition of icilin-induced intracellular calcium flux at 0.5 uM relative to control; format: cell-based; settings: filed as antagonist
Target sequence in this assay (Q7Z2W7 whole entry, looked up): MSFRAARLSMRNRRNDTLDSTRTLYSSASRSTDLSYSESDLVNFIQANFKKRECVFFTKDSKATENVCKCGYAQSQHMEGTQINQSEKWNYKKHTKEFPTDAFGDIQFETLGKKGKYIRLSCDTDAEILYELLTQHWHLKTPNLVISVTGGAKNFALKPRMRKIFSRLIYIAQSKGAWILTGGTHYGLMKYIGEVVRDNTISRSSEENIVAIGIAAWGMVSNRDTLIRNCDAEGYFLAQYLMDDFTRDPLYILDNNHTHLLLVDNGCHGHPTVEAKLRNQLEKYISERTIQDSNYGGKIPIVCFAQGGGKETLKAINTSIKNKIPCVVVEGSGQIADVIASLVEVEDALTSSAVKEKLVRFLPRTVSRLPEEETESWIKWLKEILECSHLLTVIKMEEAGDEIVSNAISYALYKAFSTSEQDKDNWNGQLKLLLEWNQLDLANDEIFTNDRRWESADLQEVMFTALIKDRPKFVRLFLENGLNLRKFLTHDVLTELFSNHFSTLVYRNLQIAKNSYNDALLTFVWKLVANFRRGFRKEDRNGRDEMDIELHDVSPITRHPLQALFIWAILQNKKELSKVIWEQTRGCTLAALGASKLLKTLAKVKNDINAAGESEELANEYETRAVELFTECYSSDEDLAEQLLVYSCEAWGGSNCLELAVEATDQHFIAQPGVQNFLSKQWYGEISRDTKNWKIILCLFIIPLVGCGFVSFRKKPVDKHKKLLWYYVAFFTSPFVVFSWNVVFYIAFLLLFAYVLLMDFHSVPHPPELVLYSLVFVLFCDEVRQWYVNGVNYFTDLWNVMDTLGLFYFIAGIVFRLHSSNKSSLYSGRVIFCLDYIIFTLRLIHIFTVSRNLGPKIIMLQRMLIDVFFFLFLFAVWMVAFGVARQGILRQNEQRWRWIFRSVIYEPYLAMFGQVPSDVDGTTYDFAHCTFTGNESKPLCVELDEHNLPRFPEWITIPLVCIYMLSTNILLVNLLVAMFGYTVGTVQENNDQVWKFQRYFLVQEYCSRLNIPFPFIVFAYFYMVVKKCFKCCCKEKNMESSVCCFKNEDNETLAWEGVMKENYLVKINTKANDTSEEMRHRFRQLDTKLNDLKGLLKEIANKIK

[2] = target: T1, Transient receptor potential cation channel subfamily M member 8; test: Antagonist activity at recombinant human TRPM8 transfected in HEK293 cells assessed as assessed as inhibition of icilin-induced intracellular calcium flux; format: cell-based
Target sequence in this assay (Q7Z2W7 whole entry): as the sequence (Q7Z2W7 whole entry, looked up) above

[3] = target: Transient receptor potential cation channel subfamily V member 1 (Homo sapiens) (UniProt Q8NER1); test: Antagonist activity at human TRPV1 inhibition of capsaicin-induced channel activation at <= 30 uM; settings: dose microM <=30
Transient receptor potential cation channel subfamily V member 1 (Homo sapiens), sequence (Q8NER1 whole entry): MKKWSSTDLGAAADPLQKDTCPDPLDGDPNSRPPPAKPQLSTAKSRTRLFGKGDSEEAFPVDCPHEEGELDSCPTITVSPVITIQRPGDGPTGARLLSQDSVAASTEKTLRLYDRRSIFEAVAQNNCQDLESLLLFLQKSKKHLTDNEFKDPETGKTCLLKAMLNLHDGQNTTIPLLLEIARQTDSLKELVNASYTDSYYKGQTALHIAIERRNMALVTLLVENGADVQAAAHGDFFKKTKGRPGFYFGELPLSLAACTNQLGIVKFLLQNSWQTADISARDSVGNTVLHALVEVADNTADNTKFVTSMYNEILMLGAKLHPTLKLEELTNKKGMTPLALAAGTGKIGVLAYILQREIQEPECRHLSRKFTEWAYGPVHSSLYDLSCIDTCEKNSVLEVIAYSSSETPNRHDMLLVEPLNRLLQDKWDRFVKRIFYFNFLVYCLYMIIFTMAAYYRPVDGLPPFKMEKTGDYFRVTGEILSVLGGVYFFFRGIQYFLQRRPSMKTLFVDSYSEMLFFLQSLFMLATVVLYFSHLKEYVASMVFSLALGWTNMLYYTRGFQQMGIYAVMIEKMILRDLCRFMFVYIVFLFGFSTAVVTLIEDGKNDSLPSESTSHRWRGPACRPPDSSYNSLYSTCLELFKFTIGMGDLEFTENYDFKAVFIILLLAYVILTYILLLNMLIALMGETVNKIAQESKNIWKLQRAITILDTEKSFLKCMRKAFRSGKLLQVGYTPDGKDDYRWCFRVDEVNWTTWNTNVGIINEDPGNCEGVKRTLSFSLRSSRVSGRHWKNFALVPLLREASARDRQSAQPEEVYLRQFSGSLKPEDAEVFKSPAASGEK

[4] = Metabolic stability in human liver microsomes assessed as intrinsic clearance in presence of NADPH; format: ADME, Microsome
HepG2 = test: Cytotoxicity against human HepG2 cells assessed as reduction in cell viability at 100 uM; format: cell-based; settings: hepg2, 100 µM
[5] = Metabolic stability in human liver microsomes assessed as half life in presence of NADPH; format: ADME, Microsome

| Compound | Activity [3] | other results |
| --- | --- | --- |
| COc1cc(CN(CCN)C(=O)c2cccs2)ccc1OCc1ccccc1 | – | inhibition [1]: 98.3% |
| CCOC(=O)c1sc(-c2cccc(F)c2)nc1C#CCCCC(=O)O | inactive | IC50 [2]: 4.06 µM; CLH [4]: 0.13 mL/min/g; Activity (HepG2): Non-Toxic |
| CCOC(=O)/C=C/Oc1nc(-c2ccc(C)cc2)sc1C(=O)OCC | inactive | IC50 [2]: 1.13 µM; half-life [5]: < 10 min |
| CCOC(=O)CCCc1[nH]nnc1-c1nc(-c2cccc(F)c2)sc1C(=O)OCC | inactive | – |
| O=C(O)CCCc1cc2nc(-c3cccc(F)c3)sc2c(=O)o1 | inactive | – |
| CCOC(=O)CCCC#Cc1nc(-c2cccc(F)c2)sc1C(=O)OCC | inactive | – |
| O=C(O)CCCc1cc2nc(-c3cccc(F)c3)sc2c(=O)[nH]1 | inactive | – |

Reference: ChEMBL document CHEMBL5030549, “Design, synthesis and biological evaluation of new thiazole scaffolds as potential TRPM8 antagonists” (Bioorg Med Chem Lett, 2021)
